Data published in article PMC9234671, “Molecular determinants of αVβ5 localization in flat clathrin lattices – role of αVβ5 in cell adhesion and proliferation” (Journal of Cell Science, 2022).
“Also recorded” adds a separate entry of the source. Values belong to the molecule of their own block, whether it stands above or below them. Ends that are not written are not given here.

How the values were obtained:
[1] = biological target: T1, talin-1 head domain (THD1) (Homo sapiens, UniProt Q9Y490); experiment: Microscale thermophoresis (MST), talin-1 head domain; type: binding; conditions: Atto488-labeled β5 cytoplasmic tail 50–200 nM, 20 mM Tris-HCl pH 7.5, 200 mM NaCl, 1 mM TCEP, 0.05% Tween-20, mean±s.d., n≥5
T1 construct: pCoofy17-THD1 (1-405) constructs were transformed into Rosetta2(DE3) cells; His-SUMO (N, cleaved yes); made in house; host or cells: E. coli Rosetta2(DE3)
T1 sequence (Q9Y490 1-405): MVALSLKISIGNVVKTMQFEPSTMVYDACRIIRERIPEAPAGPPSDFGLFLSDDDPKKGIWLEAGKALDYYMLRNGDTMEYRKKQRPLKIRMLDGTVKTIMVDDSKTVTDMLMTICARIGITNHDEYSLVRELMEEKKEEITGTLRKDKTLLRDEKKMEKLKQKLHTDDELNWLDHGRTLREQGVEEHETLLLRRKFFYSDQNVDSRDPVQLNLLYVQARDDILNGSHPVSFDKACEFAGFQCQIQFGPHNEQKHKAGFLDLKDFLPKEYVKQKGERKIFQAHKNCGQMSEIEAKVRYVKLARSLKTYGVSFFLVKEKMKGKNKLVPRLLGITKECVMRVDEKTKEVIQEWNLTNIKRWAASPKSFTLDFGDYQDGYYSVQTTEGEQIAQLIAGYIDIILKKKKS
Excerpt: Fig. 2. Adaptor protein binding to integrin β subunits. (A) Colocalization of integrin chimeras fused to the promiscuous biotin ligase BirA* (green in merge) with vinculin (red; left panels) or clathrin (red; right panels) in PA-JEB/β4 keratinocytes. Actin is shown in blue. Nuclei are stained with DAPI (cyan). Scale bars: 20 μm. (B) Representative western blots of BioID assays performed using the integrin chimeras shown in A. Quantifications of ARH, Numb and talin signal intensities normalized to streptavidin-HRP levels are shown (n=3; bars show mean±s.d.). (C) Representative western blots of pulldown assays (from two repeats) using synthetic integrin β cytoplasmic domains in RAC-11P cell lysates. […]
pCoofy17-THD1 (1-405) constructs were transformed into Rosetta2(DE3) cells and his-SUMO-THD1 proteins were expressed for 16 h at 20°C after induction with 0.4 mm IPTG. Cells were harvested and resuspended in 25 mM Tris-HCl pH 8.0, 10 mM imidazole, 200 mM NaCl, 1 mM TCEP and 5 μg ml^−1 DNase, and lysed by sonication. […]
All MST measurements were performed on a Monolith NT.115 red-blue (Nanotemper, Munich, Germany) using premium-coated capillaries to reduce non-specific interaction of the proteins with the glass surface. […] Data was analyzed using the MO Affinity Analysis Software (Nanotemper). […]

full-length human ARH = biological target: T2, full-length human ARH (Homo sapiens, UniProt Q5SW96); experiment: Microscale thermophoresis (MST), ARH; type: binding
T2 construct: The full-length human ARH gene was cloned into the pETNKI-6xhis-3C-LIC vector; made in house; host or cells: E. coli BL21(DE3)
T2 sequence (Q5SW96 1-308): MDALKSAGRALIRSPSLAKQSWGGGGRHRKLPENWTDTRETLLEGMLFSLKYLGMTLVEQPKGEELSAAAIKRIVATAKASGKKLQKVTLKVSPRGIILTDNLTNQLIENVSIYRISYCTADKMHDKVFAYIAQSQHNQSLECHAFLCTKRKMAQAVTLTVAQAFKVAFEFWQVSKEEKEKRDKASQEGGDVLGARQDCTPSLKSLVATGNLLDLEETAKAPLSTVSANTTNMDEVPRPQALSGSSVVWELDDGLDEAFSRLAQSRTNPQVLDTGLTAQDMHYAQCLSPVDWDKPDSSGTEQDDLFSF
Excerpt: (§1) Fig. 2. Adaptor protein binding to integrin β subunits. (A) Colocalization of integrin chimeras fused to the promiscuous biotin ligase BirA* (green in merge) with vinculin (red; left panels) or clathrin (red; right panels) in PA-JEB/β4 keratinocytes. Actin is shown in blue. Nuclei are stained with DAPI (cyan). Scale bars: 20 μm. (B) Representative western blots of BioID assays performed using the integrin chimeras shown in A. Quantifications of ARH, Numb and talin signal intensities normalized to streptavidin-HRP levels are shown (n=3; bars show mean±s.d.). (C) Representative western blots of pulldown assays (from two repeats) using synthetic integrin β cytoplasmic domains in RAC-11P cell lysates.
The full-length human ARH gene was cloned into the pETNKI-6xhis-3C-LIC vector ([Luna-Vargas et al., 2011]) and 6xhis–ARH protein was produced in Bl21(DE3) E. coli cells. Cells were grown at 37°C until an optical density at 600 nm (OD600) of 0.6 was reached. Temperature was reduced to 30°C and protein was expressed upon induction with 0.4 mM IPTG for 3.5 h. Cells were harvested and resuspended in lysis buffer (20 mM HEPES, pH 7.5, 200 mM NaCl, 1 mM TCEP and 5 μg ml^−1 DNase). After sonication, cell debris and insoluble proteins were removed by centrifugation (21,000 g for 30 min). 6xhis–ARH was purified from the soluble fraction using nickel Sepharose beads and eluted in 20 mM HEPES, pH 7.5, 200 mM NaCl, 1 mM TCEP and 250 mM imidazole. Fractions containing 6xhi–ARH were further purified on a SEC650 size exclusion column (Bio-Rad), equilibrated with 20 mM HEPES, pH 7.5, 100 mM NaCl and 1 mM TCEP.
All MST measurements were performed on a Monolith NT.115 red-blue (Nanotemper, Munich, Germany) using premium-coated capillaries to reduce non-specific interaction of the proteins with the glass surface. Both interaction partners (ligand and receptor) were transferred into MST buffer (20 mM Tris-HCl pH 7.5, 200 mM sodium chloride, 1 mM TCEP and 0.05% Tween-20) to avoid artifacts derived from buffer mismatches. […] Data was analyzed using the MO Affinity Analysis Software (Nanotemper).

Numb-PTB (20-175) = biological target: T3, Numb-PTB (20-175) (Homo sapiens, UniProt P49757); experiment: Microscale thermophoresis (MST), Numb; type: binding
T3 construct: A pETNKI-6xhis-3C-Numb-PTB (20-175) construct was expressed in Rosetta2 (DE3) cells; 6xHis-3C (N, cleaved yes); made in house; host or cells: E. coli Rosetta2 (DE3)
T3 sequence (P49757 20-175): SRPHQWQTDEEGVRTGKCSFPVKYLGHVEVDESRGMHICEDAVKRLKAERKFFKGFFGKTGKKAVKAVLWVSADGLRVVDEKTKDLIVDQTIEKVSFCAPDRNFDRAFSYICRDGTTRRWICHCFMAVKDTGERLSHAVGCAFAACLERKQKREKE
Excerpt: as §1
A pETNKI-6xhis-3C-Numb-PTB (20-175) construct was expressed in Rosetta2 (DE3) cells for 18 h at 20°C. Cells were lysed (25 mM Tris-HCl pH 8.0, 10 mM imidazole, 200 mM NaCl, 1 mM TCEP, 5 μg/ml DNase) and sonicated, after which insoluble proteins and cell debris were removed by centrifugation (21,000 g for 30 min at 4°C). Soluble lysate was applied to a nickel Sepharose column and beads were washed with wash buffer (lysis buffer without DNase) before protein was eluted in wash buffer supplemented with 250 mM imidazole. The 6xhis tag was cleaved off by his-3C protease during dialysis against 25 mM Tris-HCl pH 8.0, 100 mM NaCl, 1 mM TCEP, 16 h at 4°C. Elution fractions were pooled, diluted with six volumes of 20 mM HEPES pH 7.5, 1 mM TCEP and applied to a 1 ml Resource S cation-exchange column (Cytiva). Protein was eluted in a NaCl gradient (50–700 mM) in 25 mM HEPES (pH 7.5). 6xhis-Numb-PTB was concentrated and further purified by size-exclusion chromatography (SEC70 column, Bio-Rad) in 25 mM Tris-HCl pH 8.0, 200 mM NaCl and 1 mM TCEP.
All MST measurements were performed on a Monolith NT.115 red-blue (Nanotemper, Munich, Germany) using premium-coated capillaries to reduce non-specific interaction of the proteins with the glass surface. […] Data was analyzed using the MO Affinity Analysis Software (Nanotemper).

Numb = experiment: Peptide pulldown, Numb; type: binding; conditions: desthiobiotin tail peptide on streptavidin beads, RAC-11P lysate, 4°C, 4 h; western blot; two repeats
Procedure: (§2) Peptide pulldowns were carried out as previously described ([Böttcher et al., 2012]) with the mouse β1 wild-type cytoplasmic tail peptide ([…]-OH) and a scrambled peptide ([…]-OH), mouse β3 wild-type tail peptide ([…]-OH), mouse β5 wild-type tail peptide ([…]-OH), β5 Δ8aa tail peptide ([…]-OH) and scrambled peptide […].
(§3) The tail peptides were synthesized de novo with a desthiobiotin on the N-terminus, coupled to Dynabeads MyOne streptavidin C1 (10 mgml^−1, Invitrogen) and incubated with RAC-11P cell lysates (prepared with M-PER reagent, Thermo Fisher Scientific) at 4°C with rotation for 4 h. After three washes with wash buffer (M-PER diluted 1:1 with PBS), bound proteins were eluted in 2× Laemmli buffer at 95°C for 5 min and separated on an 8% SDS-PAGE gel.

SNX17 = experiment: Peptide pulldown, SNX17; type: binding; conditions: desthiobiotin tail peptide on streptavidin beads, RAC-11P lysate, 4°C, 4 h; western blot; two repeats
Procedure: as §2, §3

[2] = system: cytoskeletal or clathrin adaptor proteins; experiment: Peptide pulldown, cytoskeletal or clathrin adaptor proteins; type: binding; conditions: desthiobiotin tail peptide on streptavidin beads, RAC-11P lysate, 4°C, 4 h; western blot; two repeats
Procedure: as §2, §3

ARH = experiment: Peptide pulldown, ARH; type: binding; conditions: desthiobiotin tail peptide on streptavidin beads, RAC-11P lysate, 4°C, 4 h; western blot; two repeats
Procedure: as §2, §3

[3] = biological target: Atto488-labeled integrin β5 cytoplasmic tail; experiment: MST; 50–200 nM Atto488-labeled integrin-β cytoplasmic tail as ligand; 20 mM Tris-HCl pH 7.5, 200 mM sodium chloride, 1 mM TCEP, 0.05% Tween-20; Monolith NT.115
[4] = MST, Atto488-labeled β5 cytoplasmic tail 50–200 nM, 20 mM Tris-HCl pH 7.5, 200 mM NaCl, 1 mM TCEP, 0.05% Tween-20, mean±s.d., n≥5
[5] = concentration range tested up to 75 µM for β3

Molecule: DRREFAKFQSERSRARYEMASNPLYRKPISTHTVDFAFNKFNKSYNGSVD [β5]
Kd [1]: 41.7 ± 9.5 µM | Kd (full-length human ARH; [4]): 5.6 ± 1.4 µM | Kd (Numb-PTB (20-175); [4]): 28.5 ± 7.7 µM

Molecule: DRREFAKFQSERSRARYEMASNPLYRKPISTVVNKSYNGSVD-OH [β5 Δ8 aa, β5 tail peptide carrying a deletion of 8 amino acids between the NPxY and NxxY motifs]
interaction with Numb in pulldown (Numb): binds considerably more | interaction with SNX17 in pulldown (SNX17): abrogated | binding of cytoskeletal or clathrin adaptor proteins in pulldown [2]: prevented neither the clustering of β5 in FCLs ([Zuidema et al., 2018]) nor the binding of cytoskeletal or clathrin adaptor proteins to the β5 tail

Molecule: EYEFEPDKVDTGAKGTKMAKNEKKFRNYTVHNIWESRKVAP-OH [β1 scrambled peptide, scrambled β1 tail peptide, control, reference compound]
interaction with Numb in pulldown (Numb): some background binding | interaction with ARH in pulldown (ARH): hardly

Molecule: HDRKEFAKFEEERARAKWDTANNPLYKEATSTFTNITYRGT-OH [β3, synthetic integrin β3 cytoplasmic tail peptide]
interaction with Numb in pulldown (Numb): not β1 and β3, bind to Numb and ARH | interaction with SNX17 in pulldown (SNX17): interacted strongly | binding to ARH by MST (β3) (full-length human ARH; [5]): no binding; also recorded: unable to detect binding | binding to Numb by MST (β3) (Numb-PTB (20-175); [5]): no binding; also recorded: unable to detect binding | interaction with ARH in pulldown (ARH): not β1 and β3, bind to Numb and ARH

The next lines start with the values.

Kd [3]: 41.7 µM
Molecule: talin-1 head domain (THD1) (from UniProt P26039 1-405) (domain or fragment)

Kd [3]: 5.6 µM
B1: 6xhis–ARH (natural protein)
chain: T2 sequence (Q5SW96 1-308)

Kd [3]: 28.5 µM
B2: Numb-PTB (20-175) (domain or fragment)
chain: T3 sequence (P49757 20-175)
